Results: patent US8952042B2, “FXR (NR1H4) binding and activity modulating compounds” (Phenex Pharmaceuticals AG, priority 2009, dated 2015)

Columns and labels:
[1] = Pharmacokinetics in rat after intravenous administration 1 mg/kg; format: in vivo, Male Sprague Dawley Rat; settings: rat
Experimental: Compounds were applied perorally by gavage at 5 mg/kg each and by i.v. Injection at 1 mg/kg each to male 12 weeks old C57BI/6J or Sprague Dawley rats and plasma concentrations of the test items were determined by LC-MS/MS after time points as indicated. In the case of Cynomolgus monkeys ([…]), the dose was adjusted to 12 mg/kg p.o., no i.v. injection was given (FIG. 1a, 1b and Table 2).
A solution of 2.5 mg/mL of each test item was produced by diluting them in the vehicle, 0.5% Hydroxypropyl-Methylcellulose (w/v) in 20 mM phosphate buffered saline pH 7.4. The solutions were stirred overnight at room temperature and heated to 40° C. for 10 minutes, resulting in fully homogenous suspension. The application was performed by administrating the solution perorally to the mice, with an application volume of 5 mL/kg. For each time point three mice or rats were used. In case of the Cynomolgus monkeys blood samples were obtained by repeated vein puncture. Blood samples were treated with L1-heparin during collection procedure and stored on ice until centrifugation at 645 g (5 min, 4° C.). Plasma was harvested and kept at −20° C. until being assayed. To 50 μL of plasma sample […] acetonitrile containing an internal standard was added. Samples were vigorously shaken and centrifuged for 10 minutes at 6000 g and 20° C. An aliquot of the particle-free supernatant was transferred to 200 μL sampler vials and subsequently subjected to LC MS/MS for quantification.

[2] = test system: C57BLKS lepr^−/− db/db mice; test: Lipid lowering effects in db/db mice; format: in vivo, mouse; settings: 3 days of dosing at 2×5 mg/kg/day
Experimental: Compounds were applied perorally by gavage at 2×5 mg/kg each to C57BLKS lepr^−/− db/db mice starting at the age of 12 weeks. Animals have been set on a High-Fat Diet (ssniff EF R/M 12330 with 59% (kcal) fat from Ssniff, Soest, Germany) for two weeks prior to start of gavage. Baseline blood was taken by retroorbital bleeding. Blood samples were treated with L1-heparin during collection procedure and stored on ice until centrifugation at 645 g (5 min, 4° C.). Plasma was harvested and kept at −20° C. until being assayed. Total triglycerides and total cholesterol were measured in a 3 μL aliquot of plasma using commercial kits LabAssay™ Triglyceride (Code No 290-63701) and LabAssay™ Cholesterol (Code No 294-65801) from Wako Diagnostics (Neuss, Germany). […]

[3] = UV photostability, irradiation at 254 nm, 1H NMR; format: physicochemical
Experimental: The compounds of interest were dissolved using ethanol and their UV spectrum was analyzed to determine their λmax to establish an irradiation wavelength to be used in the study (see FIG. 2). The best wavelength for testing the UV stability of the —CH═CH— double bond was determined to be 254 nm. Further material of the compounds was then dissolved in deuterated ethanol and the ^1H NMRs (400 MHz) analyzed (T=0). Each sample was then recovered from the NMR tube and subjected to UV irradiation (254 nm) for 4 h, 15 h and 70 h. At the respective timepoints the individual samples were re-analyzed by ^1H NMR and the signal for the —CH═CH— protons evaluated to assess the percent of remaining intact double bond. Other changes in the chemical shift signals were also analyzed for further changes on the overall structure of the molecules.

[4] = according to Akwabi-Ameyaw et al.; cited from earlier work
[5] = attributed to trans-stilbene moiety, Akwabi-Ameyaw et al.; cited from earlier work
[6] = male, Sprague Dawley, plasma, iv, 1 mg/kg i.v.

CC(C)c1onc(-c2c(Cl)cccc2Cl)c1COc1ccc(/C=C/c2cccc(C(=O)O)c2)c(Cl)c1 [GW4064, reference compound]
AUC(0-inf) [1, 6]: 294 ng·h/mL | MRT last [1, 6]: 50.4 min | Tmax [1, 6]: 4.98 min | Vd [1, 6]: 5.98 L/kg | half-life [1, 6]: 73.2 min | concentration at 0.083 hr ([1]; male, Sprague Dawley, plasma, iv, 1 mg/kg i.v., 0.083 hr): 405 ng/mL | concentration at 0.25 hr ([1]; male, Sprague Dawley, plasma, iv, 1 mg/kg i.v., 0.25 hr): 208 ng/mL | concentration at 0.5 hr ([1]; male, Sprague Dawley, plasma, iv, 1 mg/kg i.v., 0.50 hr): 124 ng/mL | concentration at 1 hr ([1]; male, Sprague Dawley, plasma, iv, 1 mg/kg i.v., 1.00 hr): 68.3 ng/mL | concentration at 2 hr ([1]; male, Sprague Dawley, plasma, iv, 1 mg/kg i.v., 2.00 hr): 25 ng/mL | concentration at 4 hr ([1]; male, Sprague Dawley, plasma, iv, 1 mg/kg i.v., 4.00 hr): 15 ng/mL | Cmax ([1]; male, Sprague Dawley, plasma, 1 mg/kg i.v., footnote: Co for Intravenous): 565 ng/mL | AUC(0-t) ([1]; male, Sprague Dawley, plasma, iv, 1 mg/kg, read-out: #AUC(0-8)): 268 ng·h/mL | AUC Extrapolated ([1]; 1 mg/kg i.v.): 9.0% | CI ([1]; 1 mg/kg i.v.): 56.7083 mL/min/kg | change in fasting blood glucose against vehicle [2]: −6% | behaviour in 1H NMR spectrum after prolonged UV irradiation ([3]; 70 h UV irradiation at 254 nm): major changes | compound still present in the mixture (1H NMR integration) ([3]; 70 h UV irradiation at 254 nm, deuterated ethanol): less than 30% | compound decayed ([3]; after 70 h UV irradiation at 254 nm): 70% | oral bioavailability [4]: low | plasma exposure [4]: low | plasma half life [4]: short | ultraviolet light stability [5]: instability
